Assay results taken from BindingDB's records for doi:10.1021/jm0510934 (Abbott Laboratories, 2006).

Target: Growth hormone secretagogue receptor type 1 (Homo sapiens, UniProt Q92847)
Experiment: Receptor Binding Studies and GHS-R Ca2+ Flux Assay
Conditions: not given
Procedure: Specific binding was determined by incubation of membranes from GHS-R1a transfected CHO-K cells with 125I-His9-ghrelin in the presence of increasing concentrations of compounds to obtain IC50. Fluorescence emissions from 96 wells were measured simultaneously at excitation and emission wavelength of 488 and 520 nm, respectively. During this time, agonist responses in the absence of ghrelin, or the antagonist effects of compounds on ghrelin-stimulated calcium flux were recorded. Sigmoidal curves were fitted and EC50/IC50 values were determined by GraphPad Prism software.

Sequence of Growth hormone secretagogue receptor type 1 (Q92847 whole entry): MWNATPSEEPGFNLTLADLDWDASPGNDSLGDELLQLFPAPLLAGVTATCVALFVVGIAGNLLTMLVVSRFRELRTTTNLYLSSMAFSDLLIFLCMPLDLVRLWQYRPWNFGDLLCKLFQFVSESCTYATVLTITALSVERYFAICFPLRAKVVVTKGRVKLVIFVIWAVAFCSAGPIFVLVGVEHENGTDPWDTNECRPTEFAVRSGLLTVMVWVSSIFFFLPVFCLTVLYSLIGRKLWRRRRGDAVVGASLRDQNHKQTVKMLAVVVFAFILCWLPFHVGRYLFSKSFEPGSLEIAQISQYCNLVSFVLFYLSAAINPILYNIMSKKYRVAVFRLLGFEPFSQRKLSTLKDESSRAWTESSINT

Row | SMILES | IC50 [µM]
1 | CS(=O)(=O)c1ccc(COc2ccc(-c3c(N)nc(N)nc3COCc3ccccc3)cc2)cc1 [6-[(benzyloxy)methyl]-5-{4-[(4-methanesulfonylphenyl)methoxy]phenyl}pyrimidine-2,4-diamine] | 0.048
2 | Nc1nc(N)c(-c2ccc(NCc3csc(Cl)c3)cc2)c(COCc2ccccc2)n1 [6-[(benzyloxy)methyl]-5-(4-{[(5-chlorothiophen-3-yl)methyl]amino}phenyl)pyrimidine-2,4-diamine] | 0.17
3 | CC(C)(C)CNc1ccc(-c2c(N)nc(N)nc2COCc2ccccc2)cc1 [6-[(benzyloxy)methyl]-5-{4-[(2,2-dimethylpropyl)amino]phenyl}pyrimidine-2,4-diamine] | 0.7
4 | CCc1nc(N)nc(N)c1-c1ccc(N(C)Cc2ccc(S(C)(=O)=O)cc2)cc1 [6-ethyl-5-(4-{[(4-methanesulfonylphenyl)methyl](methyl)amino}phenyl)pyrimidine-2,4-diamine] | 0.032
5 | Nc1nc(N)c(-c2ccc(CNc3ccc([N+](=O)[O-])cc3)cc2)c(COCc2ccccc2)n1 [6-[(benzyloxy)methyl]-5-(4-{[(4-nitrophenyl)amino]methyl}phenyl)pyrimidine-2,4-diamine] | 0.016
6 | Nc1nc(N)c(-c2ccc(NCc3cnc4ccccc4c3)cc2)c(COCc2ccccc2)n1 [6-[(benzyloxy)methyl]-5-{4-[(quinolin-3-ylmethyl)amino]phenyl}pyrimidine-2,4-diamine] | 0.78
7 | CCc1nc(N)nc(N)c1-c1ccc(NCc2ccc(S(C)(=O)=O)cc2)c(Br)c1 [5-(3-bromo-4-{[(4-methanesulfonylphenyl)methyl]amino}phenyl)-6-ethylpyrimidine-2,4-diamine] | 0.042
8 | Nc1nc(N)c(-c2ccc(NCc3ccncc3)cc2)c(COCc2ccccc2)n1 [6-[(benzyloxy)methyl]-5-{4-[(pyridin-4-ylmethyl)amino]phenyl}pyrimidine-2,4-diamine] | 0.086
9 | COc1ccc(CNc2ccc(-c3c(N)nc(N)nc3COCc3ccccc3)cc2)cc1 [6-[(benzyloxy)methyl]-5-(4-{[(4-methoxyphenyl)methyl]amino}phenyl)pyrimidine-2,4-diamine] | 0.09
10 | Nc1nc(N)c(-c2ccc(NCc3ccc(Cl)s3)cc2)c(COCc2ccccc2)n1 [6-[(benzyloxy)methyl]-5-(4-{[(5-chlorothiophen-2-yl)methyl]amino}phenyl)pyrimidine-2,4-diamine] | 0.32
11 | N#Cc1ccc(COc2ccc(-c3c(N)nc(N)nc3COCc3ccccc3)cc2)cc1 [2,4-diaminopyrimidine derivative, 10b] | 3.61
12 | CCc1nc(N)nc(N)c1-c1ccc(CNc2ccc(S(C)(=O)=O)cc2)cc1 [6-ethyl-5-(4-{[(4-methanesulfonylphenyl)amino]methyl}phenyl)pyrimidine-2,4-diamine] | 0.12
13 | Nc1nc(N)c(-c2ccc(NCc3ccc(Cl)cc3)cc2)c(CCc2ccccc2)n1 [5-(4-{[(4-chlorophenyl)methyl]amino}phenyl)-6-(2-phenylethyl)pyrimidine-2,4-diamine] | 3.35
14 | CCc1nc(N)nc(N)c1-c1ccc(CNc2ccc([N+](=O)[O-])cc2)cc1 [6-ethyl-5-(4-{[(4-nitrophenyl)amino]methyl}phenyl)pyrimidine-2,4-diamine] | 0.19
15 | Nc1nc(N)c(-c2ccc(NCc3ccccc3)cc2)c(COCc2ccccc2)n1 [5-[4-(benzylamino)phenyl]-6-[(benzyloxy)methyl]pyrimidine-2,4-diamine] | 0.98
16 | CCc1nc(N)nc(N)c1-c1ccc(NCc2ccc(S(C)(=O)=O)cc2)c(Cl)c1 [5-(3-chloro-4-{[(4-methanesulfonylphenyl)methyl]amino}phenyl)-6-ethylpyrimidine-2,4-diamine] | 0.011

Same assay, conditions: pH 7.4; 22 °C

Row | SMILES | IC50 [µM]
17 | CCc1nc(N)nc(N)c1-c1ccc(NCc2ccc(C(C)=O)cc2)cc1 [1-[4-({[4-(2,4-diamino-6-ethylpyrimidin-5-yl)phenyl]amino}methyl)phenyl]ethan-1-one] | 0.11
18 | CCc1nc(N)nc(N)c1-c1ccc(NCc2ccc(S(C)(=O)=O)cc2)cc1 [6-ethyl-5-(4-{[(4-methanesulfonylphenyl)methyl]amino}phenyl)pyrimidine-2,4-diamine] | 0.012
19 | CCc1nc(N)nc(N)c1-c1ccc(NCc2ccc(C(C)O)cc2)cc1 (stereo unspecified) [1-[4-({[4-(2,4-diamino-6-ethylpyrimidin-5-yl)phenyl]amino}methyl)phenyl]ethan-1-ol] | 0.11
20 | CC(=O)c1ccc(CNc2ccc(-c3c(N)nc(N)nc3COCc3ccccc3)cc2)cc1 [1-(4-{[(4-{2,4-diamino-6-[(benzyloxy)methyl]pyrimidin-5-yl}phenyl)amino]methyl}phenyl)ethan-1-one] | 0.01
21 | N#Cc1ccc(CNc2ccc(-c3c(N)nc(N)nc3COCc3ccccc3)cc2)cc1 [4-{[(4-{2,4-diamino-6-[(benzyloxy)methyl]pyrimidin-5-yl}phenyl)amino]methyl}benzonitrile] | 0.019
22 | Nc1nc(N)c(-c2ccc(NCc3ccc(C(F)(F)F)cc3)cc2)c(COCc2ccccc2)n1 [6-[(benzyloxy)methyl]-5-[4-({[4-(trifluoromethyl)phenyl]methyl}amino)phenyl]pyrimidine-2,4-diamine] | 0.097
23 | Nc1nc(N)c(-c2ccc(NCc3ccc([N+](=O)[O-])cc3)cc2)c(COCc2ccccc2)n1 [6-[(benzyloxy)methyl]-5-(4-{[(4-nitrophenyl)methyl]amino}phenyl)pyrimidine-2,4-diamine] | 0.0058
24 | Nc1nc(N)c(-c2ccc(NCc3ccc(S(=O)(=O)C(F)(F)F)cc3)cc2)c(COCc2ccccc2)n1 [6-[(benzyloxy)methyl]-5-[4-({[4-(trifluoromethane)sulfonylphenyl]methyl}amino)phenyl]pyrimidine-2,4-diamine] | 0.085
25 | CS(=O)(=O)c1ccc(CNc2ccc(-c3c(N)nc(N)nc3COCc3ccccc3)cc2)cc1 | 0.0072
26 | CCc1nc(N)nc(N)c1-c1ccc(NCc2cc(F)c(S(C)(=O)=O)c(F)c2)cc1 [5-(4-{[(3,5-difluoro-4-methanesulfonylphenyl)methyl]amino}phenyl)-6-ethylpyrimidine-2,4-diamine] | 0.045
27 | CCc1nc(N)nc(N)c1-c1ccc(NCc2ccc(C#N)cc2)cc1 [4-({[4-(2,4-diamino-6-ethylpyrimidin-5-yl)phenyl]amino}methyl)benzonitrile] | 0.78
28 | CCc1nc(N)nc(N)c1-c1ccc(NCc2ccnc(Cl)c2)cc1 [5-(4-{[(2-chloropyridin-4-yl)methyl]amino}phenyl)-6-ethylpyrimidine-2,4-diamine] | 0.22
29 | CCc1nc(N)nc(N)c1-c1ccc(NCc2ccc([N+](=O)[O-])cc2)cc1 [6-ethyl-5-(4-{[(4-nitrophenyl)methyl]amino}phenyl)pyrimidine-2,4-diamine] | 0.023
30 | CCc1nc(N)nc(N)c1-c1ccc(NCc2csc(Cl)c2)cc1 [5-(4-{[(5-chlorothiophen-3-yl)methyl]amino}phenyl)-6-ethylpyrimidine-2,4-diamine] | 0.79
31 | Nc1nc(N)c(-c2ccc(NCc3ccnc(Cl)c3)cc2)c(COCc2ccccc2)n1 [6-[(benzyloxy)methyl]-5-(4-{[(2-chloropyridin-4-yl)methyl]amino}phenyl)pyrimidine-2,4-diamine] | 0.0036
32 | CCc1nc(N)nc(N)c1-c1ccc(NCc2ccc(S(=O)(=O)C(F)(F)F)cc2)cc1 [6-ethyl-5-[4-({[4-(trifluoromethane)sulfonylphenyl]methyl}amino)phenyl]pyrimidine-2,4-diamine] | 0.69
33 | CCc1nc(N)nc(N)c1-c1ccc(NCc2ccc(Cl)cc2)cc1 [5-(4-{[(4-chlorophenyl)methyl]amino}phenyl)-6-ethylpyrimidine-2,4-diamine] | 1.38
34 | Nc1nc(N)c(-c2ccc(NCc3ccc(Cl)cc3)cc2)c(COCc2ccccc2)n1 [6-[(benzyloxy)methyl]-5-(4-{[(4-chlorophenyl)methyl]amino}phenyl)pyrimidine-2,4-diamine] | 0.18

Same assay, conditions: pH 7.4; 22 °C; read-out: IC50

Row | SMILES | IC50 [µM]
35 | Nc1nc(N)c(-c2ccc(NCc3ccc(S(=O)(=O)C(F)(F)F)cc3)cc2)c(COCc2ccccc2)n1 [6-[(benzyloxy)methyl]-5-[4-({[4-(trifluoromethane)sulfonylphenyl]methyl}amino)phenyl]pyrimidine-2,4-diamine] | 0.001
36 | CCc1nc(N)nc(N)c1-c1ccc(NCc2ccc(S(=O)(=O)C(F)(F)F)cc2)cc1 [6-ethyl-5-[4-({[4-(trifluoromethane)sulfonylphenyl]methyl}amino)phenyl]pyrimidine-2,4-diamine] | 0.021
